Several values for one entry are separate records, joined by “and”; a condition that tells them apart may be missing. Equal entries are not always repeated.
Tested on: IL-1β induced E-selectin expression
Experiment: Inhibition of IL-1β induced E-selectin (SELE) mRNA expression in primary HUVEC, real time PCR
Format: cell-based, human
Details: for Inhibitory activity against E-selectin expression (in words): IL-1β stimulated HUVEC, 5 ng/mL IL-1β for 90 min; for EC [μM] (effective concentration) / Max. Inhibition (%): HUVEC pre-incubated 30 min with compound, then 5 ng/mL IL-1β for 90 min; for EC [μM] (effective concentration): SELE mRNA normalized to GAPDH, at least three independent experiments; for Max. Inhibition (%): SELE mRNA by qPCR, at the effective concentration
Method: J. Seigner et al. (Frontiers in Pharmacology 10.3389/fphar.2019.00289) reported recently that interleukin-1β (IL-1β) induced E-selectin mRNA levels were inhibited by a comfrey extract by approximately 70% at the starting concentration of 20 μg/ml. E-selectin is a NF-κB-dependent target gene and IL-1β is a well-described pro-inflammatory mediator that exerts an important role in the regulation of immune and inflammatory responses, in particular those involving sterile insults such as trauma and blunt injuries. […] Thus, the anti-inflammatory activity of individual compounds 1, 5, 12 and 14, was tested using IL-1-stimulated HUVEC cells and analyzed by real time PCR determining the fold change in mRNA expression of E-selectin. These were compared to the inhibitory activity of the new arylnaphthalene lignan comfreyn A (15) and globoidnan B (8), malaxinic acid (9) and caffeic acid ethyl ester (16), the latter three identified first time in S. officinale as disclosed herein.
Therefore, primary HUVEC cells were isolated from umbilical cords as described by M. Hoeth et al., Guidance Molecules in Human Endothelial Cells, Plos One 7, 2012 and maintained in M199 medium (Lonza) supplemented with 20% FCS (Sigma), 2 mM L-glutamine (Sigma), penicillin (100 units/mL), streptomycin ([…]), 5 units/mL heparin, and […] ECGS (Promocell), and were used up to passage 5. HUVEC cell were pre-incubated with various concentration of purified compounds (1, 5, 8, 9, 12, 14, 15 and 16) for 30 minutes following stimulation with 5 ng/mL IL-1β (R&D Systems) for 90 min. Cells were then analyzed for the change in mRNA expression of E-Selectin (SELE). Therefore, total RNA was isolated using the PeqGold Total RNA Isolation Kit (VWR International) according to the manufacturer's instructions. 1 μg RNA was reverse transcribed using random hexamers (Fermentas) and murine leukemia virus reverse transcriptase (Thermo Scientific Fisher). Primers were designed using the software “Primer3”. Following primer sequences were used for qPCR: glyceraldehyde 3-phosphate dehydrogenase (GAPDH) forward, 5′-AGAAGGCTGGGGCTCATTT-3′ and reverse, 5′-[…]-3′; E-Selectin (SELE) forward, 5′-CCTGTGAAGCTCCCACTGA-3 and reverse 5′-[…]-3′. Real-time PCR was done with the SsoAdvanced Universal SYBR Green Supermix (BioRad) using the StepOnePlus instrument (Applied Biosystems), and relative mRNA expression normalized to GAPDH. Fold changes in mRNA expression were calculated according to the 2-ΔΔCT method.

SMILES | Inhibitory activity against E-selectin expression (in words) | EC [μM] (effective concentration) [µM] | Max. Inhibition (%) | also measured
NC(=O)NC1NC(=O)NC1=O (stereo not shown) [Compound 1, allantoin] | do not show any inhibitor activity | – | – | –
O=Cc1ccc(O)c(O)c1 [Compound 5, protocatechuic aldehyde] | – | 120 | – | –
O=C(O[C@H](Cc1ccc(O)c(O)c1)C(=O)O)C1=Cc2cc(O)c(O)cc2[C@H](c2ccc(O)c(O)c2)[C@H]1C(=O)O [Compound 8, globoidnan B] | did not show any inhibitory activity | – | – | –
CC(C)=CCc1cc(C(=O)O)ccc1O[C@@H]1O[C@H](CO)[C@@H](O)C(O)[C@H]1O (stereo partly shown) [Compound 9, malaxinic acid] | – | 108 | – | –
O=C(/C=C/c1ccc(O)c(O)c1)O[C@H](Cc1ccc(O)c(O)c1)C(=O)O [Compound 12, rosmarinic acid] | do not show any inhibitor activity | – | – | –
O=C(O[C@H](Cc1ccc(O)c(O)c1)C(=O)O)c1cc(-c2ccc(O)c(O)c2)c2cc(O)c(O)cc2c1 [Compound 14, globoidnan A] | – | 40 | 35% | –
CCOC(=O)c1cc2cc(O)c(O)cc2c2c1c(=O)oc1cc(O)c(O)cc12 [Compound 15, comfreyn A] | – | 50 | 50% and 52% | Inhibitory activity against E-selectin expression (in words) (listed as Comfreyn A): inhibition of E-selectin expression; Inhibitory activity against E-selectin expression (in words) (listed as comfreyn A): inhibit the expression of E-selecting mRNA
CCOC(=O)/C=C/c1ccc(O)c(O)c1 [Compound 16, caffeic acid ethyl ester] | – | 64 | 70% | –
